Measurements: patent US20230159445A1, “STAT INHIBITORY COMPOUNDS AND COMPOSITIONS” (JANPIX LIMITED, priority 2020, published 2023)

Legend:
MV4-11 cells = assay: MV4-11 Cell Cytotoxicity Assay (CellTiter-Blue, 72 h); format: cell-based, human; settings: Homo sapiens, MV4-11; MV-4-11 cells
In short: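 Viability read-out: CellTiter-Blue, 1 h, fluorescence 560/590 nm. Preceded by 72 h exposure (37° C, 5% CO2) to twofold dilution series from 50 μM, triplicate, 0.5% DMSO vehicle, applied 24 h after plating.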

glutathione (GSH) = assay: Reactivity Profiling with Glutathione (GSH), half-life by HPLC; settings: 5 mM glutathione (GSH) in IMDM with 10% FBS

SMILES | IC50 (MV4-11 cells) | half-life at 25 μM (glutathione (GSH))
CC(C)(C)c1cc(CN(C(=O)CN(Cc2ccc(Cl)cc2)S(=O)(=O)c2c(F)c(F)c(F)c(F)c2F)c2ccc(C(=O)O)cc2OC(F)(F)F)cc(C2CC2)c1 [Compound 1050, 4-(N-(3-(tert-butyl)-5-cyclopropylbenzyl)-2-(N-(4-chlorobenzyl)-(2,3,4,5,6-pentafluorophenyl)sulfon-amido)acetamido)-3-(trifluoromethoxy) benzoic acid] | 1000 to 3160 nM | 9.23 to 1670 h
CC(C)(C)c1cc(CN(C(=O)CCN(Cc2ccc(Cl)cc2)S(=O)(=O)c2c(F)c(F)c(F)c(F)c2F)c2ccc(C(=O)O)c(O)c2)cc(C2CC2)c1 [Compound 1052, 4-(N-(3-(tert-butyl)-5-cyclopropylbenzyl)-3-(N-(4-chlorobenzyl)-(2,3,4,5,6-pentafluorophenyl)sulfon-amido)propanamido)-2-hydroxybenzoic acid] | 3160 to 100000 nM | 2.37 to 4.12 h
O=C(O)c1ccc(N(Cc2cc(Br)cc(C3CC3)c2)C(=O)CN(Cc2ccc(Cl)cc2)S(=O)(=O)c2c(F)c(F)c(F)c(F)c2F)cc1O [Compound 1054, 4-(N-(3-bromo-5-cyclopropylbenzyl)-2-(N-(4-chlorobenzyl)-(2,3,4,5,6-pentafluorophenyl)sulfon-amido)acetamido)-2-hydroxybenzoic acid] | 3160 to 100000 nM | 0.00167 to 2.37 h
CC(C)(C)c1cc(CN(C(=O)CN(Cc2ccc(Cl)cc2)S(=O)(=O)c2c(F)c(F)c(F)c(F)c2F)c2ccc(S(N)(=O)=O)cc2)cc(C2CC2)c1 [Compound 1055, N-(3-(tert-butyl)-5-cyclopropylbenzyl)-2-(N-(4-chlorobenzyl)-(2,3,4,5,6-pentafluorophenyl)sulfon-amido)-N-(4-sulfamoylphenyl) acetamide] | 1000 to 3160 nM | 9.23 to 1670 h
Cc1cc(C(=O)O)ccc1N(Cc1cc(C2CC2)cc(C(C)(C)C)c1)C(=O)CN(Cc1ccc(Cl)cc1)S(=O)(=O)c1c(F)c(F)c(F)c(F)c1F [Compound 1056, 4-(N-(3-(tert-butyl)-5-cyclopropylbenzyl)-2-(N-(4-chlorobenzyl)-(2,3,4,5,6-pentafluorophenyl)sulfon-amido)acetamido)-3-methylbenzoic acid] | 316 to 1000 nM | 4.12 to 9.23 h
CC(C)(C)c1cc(CN(C(=O)CN(Cc2ccccc2F)S(=O)(=O)c2c(F)c(F)c(F)c(F)c2F)c2ccc(C(=O)O)cc2N2CCC2)cc(C2CC2)c1 [Compound 1058, 3-(azetidin-1-yl)-4-(N-(3-(tert-butyl)-5-cyclopropylbenzyl)-2-(N-(2-fluorobenzyl)-(2,3,4,5,6-pentafluoro-phenyl)sulfonamido)acetamido)benzoic acid] | 316 to 1000 nM | 9.23 to 1670 h
CN(C)c1cc(C(=O)O)c(F)cc1N(Cc1cc(C2CC2)cc(C(C)(C)C)c1)C(=O)CN(Cc1ccccc1F)S(=O)(=O)c1c(F)c(F)c(F)c(F)c1F [Compound 1060, 4-(N-(3-(tert-butyl)-5-cyclopropylbenzyl)-2-(N-(2-fluorobenzyl)-(2,3,4,5,6-pentafluoro-phenyl)sulfonamido)acetamido)-5-(dimethylamino)-2-fluorobenzoic acid] | 0.01 to 316 nM | 4.12 to 9.23 h
CN(c1cc(C(=O)O)ccc1N(Cc1cc(C2CC2)cc(C(C)(C)C)c1)C(=O)CN(Cc1ccccc1F)S(=O)(=O)c1c(F)c(F)c(F)c(F)c1F)S(C)(=O)=O [Compound 1064, 4-(N-(3-(tert-butyl)-5-cyclopropylbenzyl)-2-(N-(2-fluorobenzyl)-(2,3,4,5,6-pentafluoro-phenyl)sulfonamido)acetamido)-3-(N-methylmethylsulfonamido) benzoic acid] | 1000 to 3160 nM | 4.12 to 9.23 h
CC(C)(C)c1cc(CN(C(=O)CN(Cc2ccccc2F)S(=O)(=O)c2c(F)c(F)c(F)c(F)c2F)c2ccc(C(=O)O)cc2F)cc(C2CC2)c1 [Compound 1065, 4-(N-(3-(tert-butyl)-5-cyclopropylbenzyl)-2-(N-(2-fluorobenzyl)-(2,3,4,5,6-pentafluoro-phenyl)sulfonamido)acetamido)-3-fluorobenzoic acid] | 316 to 1000 nM | 0.00167 to 2.37 h
CC(C)(C)c1cc(CN(C(=O)CN(Cc2ccccc2F)S(=O)(=O)c2c(F)c(F)c(F)c(F)c2F)c2ccc(C(=O)O)c(N)c2)cc(C2CC2)c1 [Compound 1070, 2-amino-4-(N-(3-(tert-butyl)-5-cyclopropylbenzyl)-2-(N-(2-fluorobenzyl)-(2,3,4,5,6-pentafluoro-phenyl)sulfonamido)acetamido)benzoic acid] | 316 to 1000 nM | 0.00167 to 2.37 h
CN(C)c1cc(N(Cc2cc(C3CC3)cc(C(C)(C)C)c2)C(=O)CN(Cc2ccccc2F)S(=O)(=O)c2c(F)c(F)c(F)c(F)c2F)ccc1C(=O)O [Compound 1071, 4-(N-(3-(tert-butyl)-5-cyclopropylbenzyl)-2-(N-(2-fluorobenzyl)-(2,3,4,5,6-pentafluoro-phenyl)sulfonamido)acetamido)-2-(dimethylamino) benzoic acid] | 316 to 1000 nM | 2.37 to 4.12 h
Cc1cc(C(=O)O)cc(C)c1N(Cc1cc(C2CC2)cc(C(C)(C)C)c1)C(=O)CN(Cc1ccccc1F)S(=O)(=O)c1c(F)c(F)c(F)c(F)c1F [Compound 1072, 4-(N-(3-(tert-butyl)-5-cyclopropylbenzyl)-2-(N-(2-fluorobenzyl)-(2,3,4,5,6-pentafluoro-phenyl)sulfonamido)acetamido)-3,5-dimethylbenzoic acid] | 316 to 1000 nM | 4.12 to 9.23 h
COc1cc(C(=O)O)ccc1N(Cc1cc(C2CC2)cc(C(C)(C)C)c1)C(=O)C[C@@H](C)N(Cc1ccccc1F)S(=O)(=O)c1c(F)c(F)c(F)c(F)c1F [Compound 1073] | 316 to 1000 nM | 0.00167 to 2.37 h
COc1cc(C(=O)O)ccc1N(Cc1cc(C2CC2)cc(C(C)(C)C)c1)C(=O)CN(Cc1ccc(F)cc1F)S(=O)(=O)c1c(F)c(F)c(F)c(F)c1F [Compound 1076, 4-(N-(3-(tert-butyl)-5-cyclopropylbenzyl)-2-(N-(2,4-difluorobenzyl)-(2,3,4,5,6-pentafluorophenyl)sulfon-amido)acetamido)-3-methoxybenzoic acid] | 316 to 1000 nM | 2.37 to 4.12 h
COc1cc(F)ccc1CN(CC(=O)N(Cc1cc(C2CC2)cc(C(C)(C)C)c1)c1ccc(C(=O)O)cc1OC)S(=O)(=O)c1c(F)c(F)c(F)c(F)c1F [Compound 1077, 4-(N-(3-(tert-butyl)-5-cyclopropylbenzyl)-2-(N-(4-fluoro-2-methoxybenzyl)-(2,3,4,5,6-pentafluoro-phenyl)sulfonamido)acetamido)-3-methoxybenzoic acid] | 316 to 1000 nM | 2.37 to 4.12 h
COc1cc(C(=O)O)ccc1N(Cc1cc(C2CC2)cc(C(C)(C)C)c1)C(=O)CN(Cc1c(Cl)cc(F)cc1Cl)S(=O)(=O)c1c(F)c(F)c(F)c(F)c1F [Compound 1079, 4-(N-(3-(tert-butyl)-5-cyclopropylbenzyl)-2-(N-(2,6-dichloro-4-fluorobenzyl)-(2,3,4,5,6-pentafluorophenyl)sulfon-amido)acetamido)-3-methoxybenzoic acid] | 0.01 to 316 nM | 4.12 to 9.23 h
COc1cc(C(=O)O)ccc1N(Cc1cc(C2CC2)cc(C(C)(C)C)c1)C(=O)CN(Cc1cccc(F)c1F)S(=O)(=O)c1c(F)c(F)c(F)c(F)c1F [Compound 1080, 4-(N-(3-(tert-butyl)-5-cyclopropylbenzyl)-2-(N-(2,3-difluorobenzyl)-(2,3,4,5,6-pentafluorophenyl)sulfonamido)acetamido)-3-methoxybenzoic acid] | 0.01 to 316 nM | 2.37 to 4.12 h
COc1cc(C(=O)O)ccc1N(Cc1cc(C2CC2)cc(C(C)(C)C)c1)C(=O)CN(Cc1c(F)c(F)cc(F)c1F)S(=O)(=O)c1c(F)c(F)c(F)c(F)c1F [Compound 1082, 4-(N-(3-(tert-butyl)-5-cyclopropylbenzyl)-2-(N-(2,3,5,6-tetrafluorobenzyl)-(2,3,4,5,6-pentafluoro-phenyl)sulfonamido)acetamido)-3-methoxybenzoic acid] | 0.01 to 316 nM | 2.37 to 4.12 h
COc1cc(C(=O)O)ccc1N(Cc1cc(C2CC2)cc(C(C)(C)C)c1)C(=O)CN(Cc1ccc(F)c(F)c1F)S(=O)(=O)c1c(F)c(F)c(F)c(F)c1F [Compound 1083, 4-(N-(3-(tert-butyl)-5-cyclopropylbenzyl)-2-(N-(2,3,4-trifluorobenzyl)-(2,3,4,5,6-pentafluoro-phenyl)sulfonamido)acetamido)-3-methoxybenzoic acid] | 0.01 to 316 nM | 4.12 to 9.23 h
COc1cc(C(=O)O)ccc1N(Cc1cc(C2CC2)cc(C(C)(C)C)c1)C(=O)CN(Cc1ncccc1F)S(=O)(=O)c1c(F)c(F)c(F)c(F)c1F [Compound 1084, 4-(N-(3-(tert-butyl)-5-cyclopropylbenzyl)-2-(N-((3-fluoropyridin-2-yl)methyl)-(2,3,4,5,6-pentafluoro-phenyl)sulfonamido)acetamido)-3-methoxybenzoic acid] | 316 to 1000 nM | 0.00167 to 2.37 h
COc1cc(C(=O)O)ccc1N(Cc1cc(C2CC2)cc(C(C)(C)C)c1)C(=O)CN(Cc1ccc(F)cn1)S(=O)(=O)c1c(F)c(F)c(F)c(F)c1F [Compound 1085, 4-(N-(3-(tert-butyl)-5-cyclopropylbenzyl)-2-(N-((5-fluoropyridin-2-yl)methyl)-(2,3,4,5,6-pentafluoro-phenyl)sulfonamido)acetamido)-3-methoxybenzoic acid] | 316 to 1000 nM | 0.00167 to 2.37 h
CC(c1cc(CN(C(=O)CN(Cc2ccccc2F)S(=O)(=O)c2c(F)c(F)c(F)c(F)c2F)c2ccc(C(=O)O)c(O)c2)cc(C2CC2)c1)C(F)(F)F (centres unmarked) [Compound 1086, 4-(N-(3-cyclopropyl-5-(1,1,1-trifluoropropan-2-yl)benzyl)-2-(N-(2-fluorobenzyl)-(2,3,4,5,6-pentafluoro-phenyl)sulfonamido)acetamido)-2-hydroxybenzoic acid] | 1000 to 3160 nM | 2.37 to 4.12 h
